From paper PMC12998938, “Neutrophil store-operated Ca^2+ entry: A correctable biomarker of cystic fibrosis lung disease progression” (Journal of cystic fibrosis : official journal of the …, 2025)

Tests used:
[1] = tested on: inositol monophosphatase 2 (printed IMAP2); conditions: no reference printed with the statement; cited from earlier work
Source text: Increased SOCE has previously been described in CF neutrophils and may be causal for CF neutrophil hyperactivity. However, Orai1’s involvement in SOCE in neutrophils has not been extensively studied, and the impact of CFTR modulator therapies on Orai1/SOCE is not well-understood. To globally assess the impact of ETI on CF neutrophils, we first performed a proteomic analysis. This analysis identified multiple proteins that were differentially expressed in CF-derived neutrophils relative to neutrophils from non-CF participants, even though the majority of pwCF in this part of the study ha ...

SOCE, Orai1 and STIM1 = conditions: ref [49]; cited from earlier work
[2] = tested on: SOCE/Orai1 in non-CF peripheral blood neutrophils; assay: Fluo-4 Ca2+ assay, global thapsigargin-stimulated Ca2+ response (SOCE), non-CF neutrophils; type: cell-based, human; conditions: 1 μM thapsigargin
Protocol: (§1) Neutrophils were immediately isolated by negative selection from deidentified blood samples using an EasySep human neutrophil isolation kit (Stem Cell Technologies) as described. Cytosolic Ca^2+ was measured using Fluo-4 as described. Protein lysate from isolated blood neutrophils was characterized by liquid chromatography with tandem mass spectrometry (LC-MS/MS) as described. Degranulation products in media were quantified by Luminex assay using a custom Bio-Plex human kit (BioRad) per the manufacturer’s protocol […]. Detailed methods for all experiments and measurements are provided in an online data supplement.
(§2) Isolated neutrophils were incubated with peptide or vehicle control for 3 h. For the final hour of treatment, cells were loaded with Fluo-4 direct (Thermofisher) for 45 min at 37°C and 15 min at room temperature as described.
(§3) Fluo-4 Ca^2+ assays. Isolated neutrophils were incubated with peptide or vehicle control for 3 h. For the final hour of treatment, cells were loaded with Fluo-4 direct (Thermofisher) for 45 min at 37°C and 15 min at room temperature. For global Ca^2+ measurements, baseline fluorescent readings were made for 2 min (1 read every 30 s) using a Tecan Infinite M1000 plate reader (ex 494 em 516 nm, bandwidth 5 nm) before thapsigargin (Sigma-Aldrich) was added and the change in emission was recorded for 10 min (1 read every 30 s). To isolate phases of store operated Ca^2+ entry, cells underwent 3 rounds of centrifugation and resuspension in Ca^2+-free Ringer’s solution to remove extracellular Ca^2+. Baseline fluo-4 fluorescence was read for 2 min before cell were stimulated with thapsigargin (Tocris). Reads continued for ~5 min before 1.2 mM Ca^2+ was added to the extracellular solution and SOCE was measured for ~10 mins. For analysis, all fluo-4 fluorescence reads are normalized to baseline.

[3] = tested on: SOCE/Orai1 in CF peripheral blood neutrophils; assay: Fluo-4 Ca2+ assay, global thapsigargin-stimulated Ca2+ response (SOCE), CF neutrophils; type: cell-based, human; conditions: CF, 1 μM thapsigargin
Protocol: as §1, §2, §3

[4] = tested on: Ca2+ influx in non-CF neutrophils; assay: Fluo-4 Ca2+ influx across the plasma membrane, non-CF neutrophils; type: cell-based, human; conditions: thapsigargin 1 μM, regardless of genotype
Protocol: as §2
(§4) Fig. 3. ELD607 inhibits SOCE in non-CF and CF neutrophils. (A) and (B) Mean changes in fluo-4 fluorescence as a marker of cytoplasmic Ca^2+ levels in non-CF and CF neutrophils respectively before and after stimulation with 1 μM thapsigargin (Tg). Before stimulation, neutrophils were exposed to vehicle (0.1% DMSO in PBS), 10 μM ELD607 or scrambled peptide (control) for 3 h. N = 10 non-CF and 21 CF donors. Stats show ELD607 vs vehicle or scrambled peptide based on color. (C-F) Isolation of ER Ca^2+ release vs Ca^2+ influx across the plasma membrane in non-CF and CF Neutrophils. Neutrophils were stimulated with thapsigargin (1 μM) in the absence of extracellular Ca^2+ to allow the release of Ca^2+ stores to be measured. Extracellular Ca^2+ was then returned so that extracellular Ca^2+ influx could be measured. (C) Mean fold change in Fluo-4 fluorescence during ER store release in non-CF and CF neutrophils. […] (E) Mean fold change in fluo-4 fluorescence during Ca^2+ influx in non-CF and CF neutrophils. […]
(§5) SOCE has 2 phases: release of Ca^2+ from ER stores and Ca^2+ influx from the extracellular space via Ca^2+ channels such as Orai1. […] Once the stores had emptied, extracellular Ca^2+ was reintroduced and Ca^2+ influx was measured (Fig. 3C–F).
(§6) Fluo-4 Ca^2+ assays. […] For global Ca^2+ measurements, baseline fluorescent readings were made for 2 min (1 read every 30 s) using a Tecan Infinite M1000 plate reader (ex 494 em 516 nm, bandwidth 5 nm) before thapsigargin (Sigma-Aldrich) was added and the change in emission was recorded for 10 min (1 read every 30 s). […] Baseline fluo-4 fluorescence was read for 2 min before cell were stimulated with thapsigargin (Tocris). Reads continued for ~5 min before 1.2 mM Ca^2+ was added to the extracellular solution and SOCE was measured for ~10 mins. For analysis, all fluo-4 fluorescence reads are normalized to baseline.

[5] = tested on: Ca2+ influx in CF neutrophils; assay: Fluo-4 Ca2+ influx across the plasma membrane, CF neutrophils; type: cell-based, human; conditions: thapsigargin 1 μM, regardless of genotype
Protocol: as §2, §4, §5, §6

SOCE in CF neutrophils = conditions: in vitro CFTR potentiation; ref [12]; cited from earlier work
Source text: We have previously reported that Ca^2+ signaling is influenced by estrogen in pwCF airways. […] Circulating neutrophil levels fluctuate during the menstrual cycle and sex-specific differences in neutrophil function have previously been described. It may have been that all our female participants had low circulating estrogen levels at time of sample, or that SOCE in neutrophils is less-estrogen sensitive than SOCE in airway epithelia. Importantly, most CF participants were taking CFTR modu ...

CF neutrophils = conditions: ex vivo treatment; ref [12]; cited from earlier work
Source text: Since SPLUNC1 is rapidly degraded ...

neutrophil elastase = conditions: neutrophil elastase; ref [20]; cited from earlier work

[Li] [lithium]
effect of IMPA2 inhibition on inositol phosphate [1]: cellular accumulation of inositol phosphate

NCCOB(c1ccccc1)c1ccccc1 [2-aminoethoxydiphenyl borate]
inhibition of SOCE, Orai1 and STIM1 (SOCE, Orai1 and STIM1): broad spectrum SOCE antagonist that also inhibits Orai1 and STIM1

C/C=C(/C)C(=O)O[C@H]1C(C)=C2[C@H]([C@@H]1OC(=O)CCCCCCC)[C@@](C)(OC(C)=O)C[C@H](OC(=O)CCC)[C@@]1(O)[C@H]2OC(=O)[C@@]1(C)O [thapsigargin]
rate of activation (slope) of cytoplasmic Ca2+ response ([2]; vs CF p<0.001): 0.033 ± 0.012
rate of activation (slope) of cytoplasmic Ca2+ response ([3]; Fluo-4, vs non-CF p<0.001): 0.085 ± 0.009
increase in cytoplasmic Ca2+ vs non-CF ([3]; n = 10 non-CF, 21 CF): significantly greater increases in cytoplasmic Ca^2+ than non-CF controls
Ca2+ influx relative to ER Ca2+ release, non-CF [4]: ~ 10 fold
Ca2+ influx relative to ER Ca2+ release, CF [5]: ~ 10 fold

CC(C)(C)c1cc(C(C)(C)C)c(NC(=O)c2c[nH]c3ccccc3c2=O)cc1O [Kalydeco]
SOCE and bacterial killing of CF neutrophils (SOCE in CF neutrophils): sufficient to normalize SOCE and CF neutrophil bacterial killing
bacterial killing by CF neutrophils (CF neutrophils): improved

VIRGINDMHVL [scrambled ELD607, scrambled version of ELD607 (negative control peptide)]
inhibition of SOCE (global Ca2+ response) ([2]; 10 μM peptide, 3 h pre-treatment, N = 10 donors): no effect on SOCE in either group
inhibition of SOCE (global Ca2+ response) ([3]; 10 μM peptide, 3 h pre-treatment, Fluo-4, N = 21 donors): no effect on SOCE in either group

B1: SPLUNC1: short palate lung and nasal epithelial clone 1, endogenous protein (protein, UniProt Q9NP55 20-256, looked up)
BPI fold-containing family A …: QFGGLPVPLDQTLPLNVNPALPLSPTGLAGSLTNALSNGLLSGGLLGILENLPLLDILKPGGGTSGGLLGGLLGKVTSVIPGLNNIIDIKVTDPQLLELGLVQSPDGHRLYVTIPLGIKLQVNTPLVGASLLRLAVKLDITAEILAVRDKQERIHLVLGDCTHSPGSLQISLLDGLGPLPIQGLLDSLTGILNKVLPELVQGNVCPLVNEVLRGLDITLVHDIVNMLIHGLQFVIKV
degradation by neutrophil elastase (neutrophil elastase): rapidly degraded by neutrophil elastase
